# In patent US20240360143A1, “[1,2,4]TRIAZOLO[4,3-A]PYRIMIDIN-7(8H)-ONE AS MITOCHONDRIAL PYRUVATE CARRIER INHIBITORS FOR USE IN THE TREATMENT OF CANCER” (MPC THERAPEUTICS SA, priority 2021, published 2024):
# Tested on: B16-OVA melanoma
# Assay: Adoptive cell transfer of compound-treated OT1 CD8 T cells in B16-OVA melanoma tumor model
# Assay type: in vivo, mouse
# Description: Activated CD45.1+OT-1 splenocytes were culture in vitro for 7 days as described above, collected and purified on a Ficoll gradient, allowing to separate dead and live splenocytes. Live splenocytes were counted with Trypan blue stain 0.4%. 100′000 or 2′000′000 live splenocytes were transferred into CD45.2+ host mice by tail vein injection.
# B16-OVA cells were cultured in DMEM (GIBCO) with 10% FBS and 1% P/S before their subcutaneous injection into the mouse flank. Each mouse received 100′000 cells in a volume of 200 μl of PBS. 6 days after B16-OVA cells injection, tumors were measured, mice were randomized and lymphodepleted by irradiation (5 Gray). 7 days after B16-Ova injection, mice were adoptively transferred with the ACT protocol described previously. Following the ACT, mice received a vaccination of CpG (50 μg/mouse) and N4 Ova peptide (10 μg/mouse) diluted in PBS to obtain a total volume of 100 μl/mouse, injected subcutaneously at the tail base. Tumors were measured every 2 days and the tumor volume was calculated according to the formula: V=π×[d2×D]/6, where d is the minor tumor axis and D is the major tumor axis. At day 26 days post-tumor engraftment, tumors and spleens were dissected were then stained for flow cytometry analyses.
# Briefly, 105 ovalbumin-expressing B16 melanoma cells were injected subcutaneously in 6-week-old mice. At day 6 post-engraftment, when a palpable tumor was present, mice were irradiated with 5Gy. The next day 105 Compound 45- or DMSO-treated OT1 cells were intravenously injected, followed by a subcutaneous vaccination of 50 μg CpG and 10 μg N4 Ova peptide (FIG. 2A). […] When analysing the blood 9 days post-adoptive cell transfer, one could observe an increase in number of transferred cells when treated in vitro with Compound 45 as compared to DMSO (FIG. 2D). The phenotype of the Compound 45-treated cells was biased towards memory, as there was a reduced percentage of short-lived effector T cells (FIG. 2E) and an increase in memory-precursor effector T cells and cells with a central memory phenotype (FIGS. 2F and 2G). When analysing the tumor upon dissection, more Compound 45-treated T cells were infiltrating the tumor (FIG. 2H).
# In order to observe a stronger anti-tumor response of the transferred OT1 T cells, the previous experiment was repeated by transferring 2×10^6 DMSO- or Compound 45-treated OT1 T cells, instead of only 10^5 (FIG. 3A). […] When analysing the tumor upon dissection, no difference in T cell infiltration was observed (FIG. 3D). […] There was however no difference in terminally exhausted or progenitor exhausted T cells (FIGS. 3F and 3G). […] There was no difference in CD107a expression (FIG. 3O).
compound,measurement,setting,value
"O=c1cc(Cc2ccccc2)n2c(SCc3c(F)cccc3Cl)nnc2[nH]1 [Compound 45, 5-benzyl-3-[(2-chloro-6-fluorobenzyl)sulfanyl][1,2,4]triazolo[4,3-a]pyrimidin-7 (8H)-one]",number of treated T cells in the spleen,"2×10^6 cells, spleen (FIG. 3H)",decreased
same,central memory phenotype in the spleen,"2×10^6 cells, spleen (FIG. 3I)",increased
same,TCF1 expression in the spleen,"2×10^6 cells, spleen (FIG. 3J)",trend towards increased
same,terminally exhausted T cells,"2×10^6 cells, tumor (FIG. 3F)",no difference
same,progenitor exhausted T cells,"2×10^6 cells, tumor (FIG. 3G)",no difference
same,IFNy expression,"2×10^6 cells, tumor cells restimulated with OVA peptide (FIG. 3K)",did not show difference
same,TNF expression,"2×10^6 cells, tumor cells restimulated with OVA peptide (FIG. 3L)",did not show difference
same,IL2 expression,"2×10^6 cells, tumor cells restimulated with OVA peptide (FIG. 3M)",did not show difference
same,Granzyme B expression,"2×10^6 cells, tumor cells restimulated with OVA peptide (FIG. 3N)",increased
same,CD107a expression,"2×10^6 cells, tumor cells restimulated with OVA peptide (FIG. 3O)",no difference
same,T cell infiltration in tumor,"2×10^6 cells, tumor upon dissection (FIG. 3D)",no difference
same,exhausted tumor infiltrating T cells,"2×10^6 cells, vs DMSO (FIG. 3E)",more exhausted
same,B16 tumor growth,"2×10^6 treated OT1 cells transferred, vs DMSO (FIG. 3B)",strongly reduced
same,B16 tumor weight,"2×10^6 treated OT1 cells, vs DMSO (FIG. 3C)",strongly reduced
same,percentage of short-lived effector T cells,"10^5 cells, blood 9 days post-ACT (FIG. 2E)",reduced
same,memory-precursor effector T cells,"10^5 cells, blood 9 days post-ACT (FIG. 2F)",increase
same,cells with a central memory phenotype,"10^5 cells, blood 9 days post-ACT (FIG. 2G)",increase
same,number of transferred cells in blood,"10^5 cells, blood 9 days post-ACT, vs DMSO (FIG. 2D)",increase
same,number of treated T cells in the spleen,"10^5 cells, spleen (FIG. 2L)",increased
same,central memory phenotype in the spleen,"10^5 cells, spleen (FIG. 2M)",increased
same,TCF1 expression in the spleen,"10^5 cells, spleen (FIG. 2N)",not significantly altered
same,IFNy expression,"10^5 cells, tumor cells restimulated with OVA peptide (FIG. 2O)",did not show a significant increase
same,TNF expression,"10^5 cells, tumor cells restimulated with OVA peptide (FIG. 2P)",did not show a significant increase
same,IL2 expression,"10^5 cells, tumor cells restimulated with OVA peptide (FIG. 2Q)",did not show a significant increase
same,Granzyme B expression,"10^5 cells, tumor cells restimulated with OVA peptide (FIG. 2R)",did not show a significant increase
same,expression of CD107a (LAMP1),"10^5 cells, tumor cells restimulated with OVA peptide (FIG. 2S)",increased
same,treated T cells infiltrating the tumor,"10^5 cells, tumor upon dissection (FIG. 2H)",more
same,exhausted tumor infiltrating T cells,"10^5 cells, vs DMSO (FIG. 2I)",not significantly more or less exhausted
same,B16 tumor growth,"10^5 treated OT1 cells transferred, vs DMSO (FIG. 2B)",reduced
same,Tumor weight,"10^5 treated OT1 cells, vs DMSO (FIG. 2C)",not significantly reduced
